How the values were obtained:
[1] = molar heat capacity at constant pressure; xn = mol fraction of the nth substance listed; details: 100 kPa, Liquid, Small sample (50 mg) DSC
[2] = Molar enthalpy of transition or fusion; details: Crystal; DSC
[3] = Crystal; DTA
[4] = molar heat capacity at constant pressure; details: 100 kPa, Liquid, Small sample (50 mg) DSC

c1ccc(-c2ccccc2)cc1 [biphenyl] + c1ccc(Oc2ccccc2)cc1
[1], x2 = 0
Details | molar heat capacity at constant pressure [J/K/mol]
353.15 K | 271.56
373.15 K | 280.81

c1ccc(Oc2ccccc2)cc1 [diphenyl ether] + c1ccc(-c2ccccc2)cc1
molar heat capacity at constant pressure [J/K/mol], [1]
Details | x1 = 0.05 | x1 = 0.15 | x1 = 0.2499 | x1 = 0.4 | x1 = 0.55 | x1 = 0.705 | x1 = 0.85 | x1 = 0.95 | x1 = 1
293.15 K | – | – | – | – | – | 263.62 | – | – | –
313.15 K | – | – | – | – | 271.57 | 271.4 | 267.65 | 262.24 | 261.61
333.15 K | – | – | 270.37 | 273.51 | 278.25 | 279.18 | 276.55 | 272.24 | 272.33
353.15 K | 272.81 | 277.2 | 279.39 | 282.35 | 285.59 | 286.13 | 285.61 | 281.72 | 281.69
373.15 K | 282.42 | 285.5 | 286.99 | 290.38 | 292.44 | 293.24 | 294.5 | 290.87 | 290.88

c1ccc(-c2ccccc2)cc1 [biphenyl]
Details | Molar enthalpy of transition or fusion [kJ/mol] | Normal melting temperature [°C]
[2] | 18.5 | –
[3] | – | 69.0

[4]
Details | molar heat capacity at constant pressure [J/K/mol]
353.15 K | 271.56
373.15 K | 280.81

c1ccc(Oc2ccccc2)cc1 [diphenyl ether]
Details | Molar enthalpy of transition or fusion [kJ/mol] | Normal melting temperature [°C]
[2] | 17 | –
[3] | – | 26.98

[4]
Details | molar heat capacity at constant pressure [J/K/mol]
313.15 K | 261.61
333.15 K | 272.33
353.15 K | 281.69
373.15 K | 290.88

— the NIST ThermoML archive (doi:10.1016/j.jct.2014.03.029)
